{"source": "paper PMC11284788", "about": "“NN1213 – A Potent, Long-Acting, and Selective Analog of Human Amylin” (Journal of Medicinal Chemistry, 2024)", "key": {"rat CTR": {"molecular_target": "T1, rat CTR (Rattus norvegicus, UniProt P32214)", "T1 construct": "expressed in transfected cells; host or cells: BHK tk-ts 13, transient (FuGENE 6)", "T1 sequence (P32214 25-479 isoform P32214-2 limits assumed)": "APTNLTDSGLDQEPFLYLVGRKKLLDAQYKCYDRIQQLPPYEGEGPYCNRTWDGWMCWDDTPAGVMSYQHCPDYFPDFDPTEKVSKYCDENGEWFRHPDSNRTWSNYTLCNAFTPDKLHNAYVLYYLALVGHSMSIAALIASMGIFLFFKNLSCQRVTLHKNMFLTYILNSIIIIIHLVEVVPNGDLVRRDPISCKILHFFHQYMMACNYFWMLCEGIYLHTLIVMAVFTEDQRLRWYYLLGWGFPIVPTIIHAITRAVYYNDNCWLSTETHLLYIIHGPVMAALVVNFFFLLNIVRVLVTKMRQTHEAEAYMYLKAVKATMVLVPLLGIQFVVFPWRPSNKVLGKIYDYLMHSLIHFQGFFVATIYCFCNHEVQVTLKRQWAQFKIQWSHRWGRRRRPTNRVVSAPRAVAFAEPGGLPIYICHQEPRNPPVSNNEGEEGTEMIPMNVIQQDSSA", "test": "cAMP FlashPlate assay, rat CTR", "assay_type": "cell-based", "conditions": "cAMP (rat receptor assay)"}, "rat AMY3R": {"molecular_target": "T2, rat AMY3R (Rattus norvegicus, UniProt P32214+Q9JJ73)", "T2 construct": "expressed in transfected cells; host or cells: BHK tk-ts 13, transient co-transfection (FuGENE 6)", "T2 sequence (P32214 25-479 isoform P32214-2 limits assumed)": "T1 sequence (P32214 25-479 isoform P32214-2 limits assumed)", "T2 sequence (Q9JJ73 23-147 partner)": "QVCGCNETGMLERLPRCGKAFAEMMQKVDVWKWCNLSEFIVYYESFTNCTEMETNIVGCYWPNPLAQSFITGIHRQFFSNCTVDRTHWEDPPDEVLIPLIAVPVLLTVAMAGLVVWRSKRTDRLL", "test": "cAMP FlashPlate assay, rat AMY3R", "assay_type": "cell-based", "conditions": "for EC50: cAMP (rat receptor assay); for ratio rCTR/rAMY3R: ratio of cAMP EC50 values"}, "rats": {"tested_on": "rats", "test": "Acute food intake in rats", "assay_type": "in vivo, rat", "conditions": "single sc injection of 30 nmol/kg, relative to vehicle, mean ± SEM, n = 5–7 per group"}, "hCTR": {"molecular_target": "T3, hCTR (Homo sapiens, UniProt P30988)", "T3 sequence (P30988 25-474)": "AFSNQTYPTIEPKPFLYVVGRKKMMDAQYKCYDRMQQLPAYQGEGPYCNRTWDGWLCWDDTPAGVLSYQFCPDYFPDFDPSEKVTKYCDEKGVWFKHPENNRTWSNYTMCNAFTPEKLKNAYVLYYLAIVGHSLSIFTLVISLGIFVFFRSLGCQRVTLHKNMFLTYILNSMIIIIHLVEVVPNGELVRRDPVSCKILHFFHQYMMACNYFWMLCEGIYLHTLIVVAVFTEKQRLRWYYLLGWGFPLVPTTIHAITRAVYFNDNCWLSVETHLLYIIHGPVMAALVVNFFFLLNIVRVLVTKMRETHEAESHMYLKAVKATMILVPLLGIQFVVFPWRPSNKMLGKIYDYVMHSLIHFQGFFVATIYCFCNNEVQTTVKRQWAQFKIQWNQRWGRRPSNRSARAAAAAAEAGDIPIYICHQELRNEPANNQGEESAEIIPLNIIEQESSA", "test": "cAMP-responsive element luciferase reporter assay, human CTR", "assay_type": "cell-based", "conditions": "luciferase (human receptor assay); for hCTR pEC50: Tables S12 and S14"}, "[1]": {"conditions": "Tables S12 and S14, read-out: rCTR pEC50 (converted)"}, "[2]": {"conditions": "transiently transfected BHK tk-ts 13 cells, FlashPlate, 30 min room temperature, 2% HSA, read-out: rCTR EC50"}, "[3]": {"conditions": "Tables S12 and S14, read-out: rAMY3R pEC50 (converted)"}, "[4]": {"conditions": "transiently transfected BHK tk-ts 13 cells, FlashPlate, 30 min room temperature, 2% HSA, read-out: rAMY3R EC50"}}, "note": "Read-outs that look alike come from different tables or passages of the source."}
{"smiles": "CC[C@H](C)[C@H](NC(=O)[C@H](C)NC(=O)CNC(=O)[C@H](Cc1ccccc1)NC(=O)[C@H](CC(N)=O)NC(=O)[C@@H]1CCCN1C(=O)[C@H](CO)NC(=O)[C@H](CO)NC(=O)[C@H](Cc1c[nH]cn1)NC(=O)[C@H](CCCNC(=N)N)NC(=O)[C@H](CC(C)C)NC(=O)[C@H](Cc1ccccc1)NC(=O)[C@H](CC(N)=O)NC(=O)[C@H](C)NC(=O)[C@H](CC(C)C)NC(=O)[C@H](CCCNC(=N)N)NC(=O)[C@H](CCC(N)=O)NC(=O)[C@@H](NC(=O)[C@H](C)NC(=O)[C@@H]1CSSC[C@H](NC(=O)[C@H](CCCCN)NC(=O)COCCOCCNC(=O)COCCOCCNC(=O)CC[C@H](NC(=O)CCCCCCCCCCCCCCCCCCC(=O)O)C(=O)O)C(=O)N[C@@H](CC(N)=O)C(=O)N[C@@H]([C@@H](C)O)C(=O)N[C@@H](C)C(=O)N[C@@H]([C@@H](C)O)C(=O)N1)[C@@H](C)O)C(=O)N1CCC[C@H]1C(=O)N[C@@H](CO)C(=O)N[C@@H](CO)C(=O)N[C@H](C(=O)N[C@@H](CC(N)=O)C(=O)N[C@H](C(=O)NCC(=O)N[C@@H](CO)C(=O)N[C@@H](CC(N)=O)C(=O)N[C@H](C(=O)N[C@@H](Cc1ccc(O)cc1)C(N)=O)[C@@H](C)O)C(C)C)[C@@H](C)O", "note": "[Peptide 10]", "values": [{"measurement": "EC50", "setting": "rat CTR; [1]", "result": 141, "unit": "nM"}, {"measurement": "EC50", "setting": "rat CTR; [2]", "result": 142, "unit": "nM"}, {"measurement": "EC50", "setting": "rat AMY3R; [3]", "result": 1.78, "unit": "nM"}, {"measurement": "EC50", "setting": "rat AMY3R; [4]", "result": 1.79, "unit": "nM"}, {"measurement": "ratio rCTR/rAMY3R", "setting": "rat AMY3R", "result": 79}, {"measurement": "Acute food intake reduction 0–24 h", "setting": "rats", "result": "22 ± 5", "unit": "%"}, {"measurement": "Acute food intake reduction 24–48 h", "setting": "rats", "result": "1 ± 5", "unit": "%"}]}
{"smiles": "CC[C@H](C)[C@H](NC(=O)[C@H](C)NC(=O)CNC(=O)[C@H](Cc1ccccc1)NC(=O)[C@H](CC(N)=O)NC(=O)[C@@H]1CCCN1C(=O)[C@H](CO)NC(=O)[C@H](CO)NC(=O)[C@H](Cc1c[nH]cn1)NC(=O)[C@H](CCCNC(=N)N)NC(=O)[C@H](CC(C)C)NC(=O)[C@H](Cc1ccccc1)NC(=O)[C@H](CC(N)=O)NC(=O)[C@H](C)NC(=O)[C@H](CC(C)C)NC(=O)[C@H](CCCNC(=N)N)NC(=O)[C@H](CCC(N)=O)NC(=O)[C@@H](NC(=O)[C@H](C)NC(=O)[C@@H]1CSSC[C@H](NC(=O)[C@H](CCCCN)NC(=O)CC[C@H](NC(=O)CCCCCCCCCCCCCCCCCCC(=O)O)C(=O)O)C(=O)N[C@@H](CC(N)=O)C(=O)N[C@@H]([C@@H](C)O)C(=O)N[C@@H](C)C(=O)N[C@@H]([C@@H](C)O)C(=O)N1)[C@@H](C)O)C(=O)N1CCC[C@H]1C(=O)N[C@@H](CO)C(=O)N[C@@H](CO)C(=O)N[C@H](C(=O)N[C@@H](CC(N)=O)C(=O)N[C@H](C(=O)NCC(=O)N[C@@H](CO)C(=O)N[C@@H](CCCCN)C(=O)N[C@H](C(=O)N[C@@H](Cc1ccc(O)cc1)C(N)=O)[C@@H](C)O)C(C)C)[C@@H](C)O", "note": "[Peptide 13]", "values": [{"measurement": "EC50", "setting": "rat CTR; [1]", "result": 30.2, "unit": "nM"}, {"measurement": "EC50", "setting": "rat CTR; [2]", "result": 30.4, "unit": "nM"}, {"measurement": "EC50", "setting": "rat AMY3R; [3]", "result": 0.603, "unit": "nM"}, {"measurement": "EC50", "setting": "rat AMY3R; [4]", "result": 0.599, "unit": "nM"}, {"measurement": "ratio rCTR/rAMY3R", "setting": "rat AMY3R", "result": 50}, {"measurement": "hCTR pEC50", "setting": "hCTR", "result": 8.58}, {"measurement": "EC50", "setting": "hCTR; BHK cells stably expressing hCTR and CRE-luciferase, 3 h, 37 °C, 10% FBS, read-out: hCTR EC50", "result": 2.61, "unit": "nM"}, {"measurement": "Acute food intake reduction 0–24 h", "setting": "rats", "result": "37 ± 7", "unit": "%"}, {"measurement": "Acute food intake reduction 24–48 h", "setting": "rats", "result": "25 ± 7", "unit": "%"}]}
{"smiles": "CC[C@H](C)[C@H](NC(=O)[C@H](C)NC(=O)CNC(=O)[C@H](Cc1ccccc1)NC(=O)[C@H](CC(N)=O)NC(=O)[C@@H]1CCCN1C(=O)[C@H](CO)NC(=O)[C@H](CO)NC(=O)[C@H](Cc1c[nH]cn1)NC(=O)[C@H](CCCNC(=N)N)NC(=O)[C@H](CC(C)C)NC(=O)[C@H](Cc1ccccc1)NC(=O)[C@H](CC(N)=O)NC(=O)[C@H](C)NC(=O)[C@H](CC(C)C)NC(=O)[C@H](CCCNC(=N)N)NC(=O)[C@H](CCC(N)=O)NC(=O)[C@@H](NC(=O)[C@H](C)NC(=O)[C@@H]1CSSC[C@H](NC(=O)[C@@H](N)CCCCNC(=O)CC[C@H](NC(=O)CCCCCCCCCCCCCCCCCCC(=O)O)C(=O)O)C(=O)N[C@@H](CC(N)=O)C(=O)N[C@@H]([C@@H](C)O)C(=O)N[C@@H](C)C(=O)N[C@@H]([C@@H](C)O)C(=O)N1)[C@@H](C)O)C(=O)N1CCC[C@H]1C(=O)N[C@@H](CO)C(=O)N[C@@H](CO)C(=O)N[C@H](C(=O)N[C@@H](CC(N)=O)C(=O)N[C@H](C(=O)NCC(=O)N[C@@H](CO)C(=O)N[C@@H](CCCCN)C(=O)N[C@H](C(=O)N[C@@H](Cc1ccc(O)cc1)C(N)=O)[C@@H](C)O)C(C)C)[C@@H](C)O", "note": "[Peptide 14]", "values": [{"measurement": "EC50", "setting": "rat CTR; [1]", "result": 37.2, "unit": "nM"}, {"measurement": "EC50", "setting": "rat CTR; [2]", "result": 37.2, "unit": "nM"}, {"measurement": "EC50", "setting": "rat AMY3R; [3]", "result": 0.759, "unit": "nM"}, {"measurement": "EC50", "setting": "rat AMY3R; [4]", "result": 0.754, "unit": "nM"}, {"measurement": "ratio rCTR/rAMY3R", "setting": "rat AMY3R", "result": 49}, {"measurement": "hCTR pEC50", "setting": "hCTR", "result": 8.26}, {"measurement": "Acute food intake reduction 24–48 h", "setting": "rats", "result": "15 ± 4", "unit": "%"}]}
